Laboratory results from PubChem BioAssay AID675 (The Scripps Research Institute Molecular Screening Center, 2007).
Active and inactive are the calls of the source.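 The calls were made as follows: active = EC50 at or below a set limit for turning on the RORA orphan receptor reporter; inactive = the rest.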

biological target: Nuclear receptor ROR-alpha (Homo sapiens) (UniProt P35398); experiment: RORA Gal4 reporter activation in CHO-K1 cells, dose response, counter-screen for SF-1 activator project, cell-based, Gal4-RORA LBD, luciferase luminescence (AID 675)
Sequence (P35398 whole entry, looked up, the tested form may be a part): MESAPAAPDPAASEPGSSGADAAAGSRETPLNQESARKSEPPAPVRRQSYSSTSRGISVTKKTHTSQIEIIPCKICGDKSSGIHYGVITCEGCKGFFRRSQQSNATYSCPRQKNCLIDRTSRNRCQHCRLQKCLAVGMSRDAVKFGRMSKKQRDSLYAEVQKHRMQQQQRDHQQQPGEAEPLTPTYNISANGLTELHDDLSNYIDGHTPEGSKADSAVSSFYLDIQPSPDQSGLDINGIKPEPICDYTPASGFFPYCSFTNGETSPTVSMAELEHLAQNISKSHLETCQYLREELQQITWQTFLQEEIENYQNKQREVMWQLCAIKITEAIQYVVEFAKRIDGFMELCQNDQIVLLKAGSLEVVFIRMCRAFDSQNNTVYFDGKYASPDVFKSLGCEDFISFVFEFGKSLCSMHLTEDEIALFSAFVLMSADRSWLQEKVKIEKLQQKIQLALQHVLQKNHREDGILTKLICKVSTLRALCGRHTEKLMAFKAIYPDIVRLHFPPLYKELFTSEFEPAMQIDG

Row | Structure (SMILES) | EC50
1 | CC1(C)CC(=O)C(C=Nc2ccccc2)=C(O)C1 | > 99 µM (inactive)
2 | O=C1CCCC(O)=C1C=Nc1ccc(O)cc1 | > 99 µM (inactive)
3 | Cc1ccc(C2/C(=C(\O)c3cnn(-c4ccccc4)c3C)C(=O)C(=O)N2CCN(C)C)o1 (stereo not drawn) | 4.13 µM
4 | COC(=O)c1ccc(/C(O)=C(\C#N)c2nc3ccccc3s2)cc1 | 1.61 µM
5 | COc1cc(C2C3C(=O)N(c4ccccc4)C(=O)C3ON2c2ccccc2)ccc1O (stereo not drawn) | > 33 µM (inactive)
6 | C/C(N)=C(/C#N)C(=O)CSc1ccc2c(c1)OCCO2 | 1.17 µM
7 | CC1(C)CC(=O)C(C=Nc2ccc3[nH]ncc3c2)=C(O)C1 | 9.88 µM
8 | COc1ccc(C(=O)/C=C/Nc2cccc(C)n2)cc1OC | 0.749 µM
